Assay results as given in patent US8846710B2, “Method of preferentially inducing the biosynthesis of interferon” (3M Innovative Properties Company, priority 2005, dated 2014).
Like-named read-outs stand apart in the source and are kept apart here.

Experiments:
[1] = tested on: tumor necrosis factor (α) (TNF-α); assay: Cytokine induction in human cells: TNF-α secreted by PBMC into culture media (ORIGEN M-Series immunoassay); format: cell-based; set-up: key to Maximal Response (pg/mL) TNF / Maximal Response TNF: If any negative values result from background subtraction, the reading is reported as “*”, and is noted as not reliably detectable; conditions: for minimal effective concentration / Maximal Response TNF: human PBMC; for minimal effective concentration: lowest tested concentration inducing TNF-α over usually 40 pg/mL, median where more than one experiment, read-out: Minimum Effective Concentration (μM) TNF; for Maximal Response (pg/mL) TNF: maximal response in dose response curve; for Maximal Response (pg/mL) TNF / Maximal Response TNF: median
How it was run: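 Secreted TNF-α (pg/mL) was quantified by ORIGEN M-Series immunoassay after 18 to 24 hours culture at 37° C of human PBMC (2×10^6 cells/mL final) with test compound (usually 30-0.014 μM, 3-fold series, DMSO ≤1%). Values were corrected for DMSO or experimental background and a reference-compound ratio, giving a minimum effective concentration.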

interferon (α) (IFN-α) = assay: Cytokine induction in human cells: IFN-α secreted by PBMC into culture media (ELISA); format: cell-based; set-up: key to Maximal Response (pg/mL) IFN: If any negative values result from background subtraction, the reading is reported as “*”, and is noted as not reliably detectable; conditions: for minimal effective concentration / Maximal Response (pg/mL) IFN: Table 10; for minimal effective concentration / Maximal Response IFN: human PBMC; for minimal effective concentration: lowest tested concentration inducing IFN-α over usually 20 pg/mL, median where more than one experiment, read-out: Minimum Effective Concentration (μM) IFN; for Maximal Response (pg/mL) IFN: maximal response in dose response curve, * = below experimental background level, median; for Maximal Response IFN: median where tested in more than one experiment
How it was run: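 IFN-α secreted by density-gradient-isolated PBMC (final 2×10^6 cells/mL) was quantified by ELISA after 18–24 h compound exposure at 37 °C, typically 30-0.014 μM in 3-fold steps with ≤1% DMSO. Readings corrected for background and reference-compound variability; lowest concentration above usually 20 pg/mL reported, plus maximal response (pg/mL).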

[2] = Table 10, * = below experimental background level
[3] = Table 11, * = TNF below experimental background of 40 pg/mL
[4] = Table 12, * = below the experimental background of 40 pg/mL

Row | Structure (SMILES) | minimal effective concentration ([1]; Table 10) [µM] | Maximal Response (pg/mL) TNF [1, 2] | minimal effective concentration (interferon (α) (IFN-α)) [µM] | Maximal Response (pg/mL) IFN (interferon (α) (IFN-α)) | also measured
1 | Nc1nc2cc(-c3ccncc3)ccc2c2c1nc(CCO)n2CCCN1CCCC1=O [Example 161] | >30 | * | >30 | * | 
2 | CC(C)(O)Cn1c(CO)nc2c(N)nc3cc(-c4cccnc4)ccc3c21 [Example 163] | 10 | 51 pg/mL | 0.37 |  | minimal effective concentration ([1]; Table 9): >30 µM; Maximal Response (pg/mL) TNF ([1]; Table 9, * = below experimental background level of 40 pg/mL): *
3 | Cc1cccc(-c2ccc3c(c2)nc(N)c2nc(CO)n(CC(C)(C)O)c23)c1 [Example 164] | >30 | * | 30 | 87 pg/mL | 
4 | Cc1ccc(-c2ccc3c(c2)nc(N)c2nc(CO)n(CC(C)(C)O)c23)cc1 [Example 165] | 0.37 |  | 0.37 |  | 
5 | CC(C)(O)Cn1c(CO)nc2c(N)nc3cc(-c4cccc(O)c4)ccc3c21 [Example 168] | 10 |  | 0.37 |  | 
6 | CC(C)(O)Cn1c(CO)nc2c(N)nc3cc(OCc4cscn4)ccc3c21 [Example 187, 1-[4-Amino-2-hydroxymethyl-7-(thiazol-4-ylmethoxy)-1H-imidazo[4,5-c]quinolin-1-yl]-2-methylpropan-2-ol] |  |  |  |  | melting point: 260 to 262 °C
7 | CCCNC(=O)NCCCCn1c(CO)nc2c(N)nc3cc(-c4cccnc4)ccc3c21 [Example 195] |  | 81 pg/mL |  | 5089 pg/mL | 
8 | CCCC(=O)NCCCCn1c(CO)nc2c(N)nc3cc(-c4cccnc4)ccc3c21 [Example 196] | > 30 |  | 0.12 |  | 
9 | Nc1nc2cc(-c3cccnc3)ccc2c2c1nc(CO)n2CCCCNC(=O)NC1CCCC1 [Example 197] |  | 600 pg/mL |  | 4373 pg/mL | 
10 | Nc1nc2cc(-c3cccnc3)ccc2c2c1nc(CO)n2CCCCNC(=O)C1CCCC1 [Example 198] |  | 410 pg/mL |  | 2745 pg/mL | 
11 | CC(C)C(=O)NCCCCn1c(CO)nc2c(N)nc3cc(-c4cccnc4)ccc3c21 [Example 199] |  | 217 pg/mL |  | 5880 pg/mL | 
12 | CC(C)(Cn1c(CO)nc2c(N)nc3ccccc3c21)CS(C)(=O)=O [Example 364, {4-Amino-1-[2,2-dimethyl-3-(methylsulfonyl)propyl]-1H-imidazo[4,5-c]quinolin-2-yl}methanol] |  |  |  |  | Maximal Response TNF [1, 3]: 164 pg/mL; Maximal Response IFN (interferon (α) (IFN-α); Table 11): 5343 pg/mL
13 | CS(=O)(=O)NCCCCn1c(CO)nc2c(N)nc3ccccc3c21 [Example 368, N-[4-(4-amino-2-hydroxymethyl-1H-imidazo[4,5-c]quinolin-1-yl)butyl]methanesulfonamide] |  |  |  |  | Maximal Response TNF [1, 3]: *; Maximal Response IFN (interferon (α) (IFN-α); Table 11): 7220 pg/mL
14 | CC(C)(F)Cn1c(CO)nc2c(N)nc3cccnc3c21 [Example 551, [4-Amino-1-(2-fluoro-2-methylpropyl)-1H-imidazo[4,5-c][1,5]naphthyridin-2-yl]methanol] |  |  |  |  | Maximal Response TNF [1, 4]: 1922 pg/mL; Maximal Response IFN (interferon (α) (IFN-α); Table 12): 1833 pg/mL
15 | CC(C)(F)Cn1c(CCO)nc2c(N)nc3cccnc3c21 [Example 552, 2-[4-Amino-1-(2-fluoro-2-methylpropyl)-1H-imidazo[4,5-c][1,5]naphthyridin-2-yl]ethanol] |  |  |  |  | Maximal Response TNF [1, 4]: 84 pg/mL; Maximal Response IFN (interferon (α) (IFN-α); Table 12): 1646 pg/mL
16 | CC(C)Cn1c(CO)nc2c(N)nc3cccnc3c21 [Example 633, [4-Amino-1-(2-methylpropyl)-1H-imidazo[4,5-c][1,5]naphthyridin-2-yl]methanol] |  |  |  |  | Maximal Response TNF [1, 4]: 363 pg/mL; Maximal Response IFN (interferon (α) (IFN-α); Table 12): 1592 pg/mL
17 | CC(=O)OCCc1nc2c(N)nc3ccccc3c2n1CC(C)C [Example 634, 2-(4-Amino-1-isobutyl-1H-imidazo[4,5-c]quinolin-2-yl)ethyl acetate] |  |  |  |  | melting point: 187 to 189 °C
18 | CC(=O)OCc1nc2c(N)nc3ccccc3c2n1CC(C)(C)O [Example 635, [4-Amino-1-(2-hydroxy-2-methylpropyl)-1H-imidazo[4,5-c]quinolin-2-yl]methyl acetate] |  |  |  |  | melting point: 203 to 205 °C
19 | CC(C)[C@H](N)C(=O)OCc1nc2c(N)nc3ccccc3c2n1CC(C)(C)O [Example 636, [4-Amino-1-(2-hydroxy-2-methylpropyl)-1H-imidazo[4,5-c]quinolin-2-yl]methyl L-valinate] |  |  |  |  | melting point: 190 to 192 °C
